Experimental findings from PubChem BioAssay (NCI) are described below.

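Following 48 hours of exposure in 96-well plates, responses at five concentrations were used to interpolate endpoints linearly. GI50 is the concentration that inhibits growth by half. TGI is the concentration that stops growth completely.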 Some results are limits rather than exact numbers.

Common to all, as to test: NCI anticancer screen, dose series, 48 h
The subject of test [1] is A498 renal.
Test [2] deals with HOP-92 NSCLC.
Test [3] deals with DU-145 prostate.
The test system of test [4] is NCI-H23 lung.
The test system of test [5] is HL-60(TB) leukemia.
The subject of test [6] is HCC-2998 colon.
Test [7] concerns SK-MEL-5 melanoma.
The test system of test [8] is SR leukemia.
In test [9] the test system is UACC-257 melanoma.
In test [10] the test system is HOP-62 NSCLC.

Regarding `BrCc1ccc2ccc3ccc(CBr)nc3c2n1`, the TGI was determined as 8.38 µM in test [1]; 4.04 µM in [2]; 21.7 µM in test [3]; 19.4 µM in [4]; 5.28 µM in [5]; 8.73 µM in [6]. The TGI in [7] stood at 8.16 µM; in test [8] it was 5.54 µM; in test [9] it was 14.1 µM; in test [10], 21 µM.

As for `CCN(CC)c1ccc(/C=N/N=C(N)N)cc1`, the GI50 in test [1] was 2.25 µM; in [2], 2.27 µM; in test [3], 4.3 µM; in test [4], 4.59 µM; in test [5] it was 2.84 µM; in test [6], 4.68 µM. The GI50 in test [7] was 3.16 µM; in [8] it was 2.03 µM; in [9], 5.2 µM; in [10], 4.65 µM. Also, the TGI in [1] was found to be 21.9 µM; in test [2], 13.5 µM; in test [3], 28.2 µM; in test [4], 50.6 µM; in [5], 7.95 µM; in [6] it was 17.3 µM. Moreover, the TGI in test [7] amounted to 13.4 µM; in test [8] it was 15 µM; in test [9], 23.9 µM; in [10], 21.3 µM.

For `N#C/C(=C/C=C/c1cccc(Cl)c1)S(=O)c1ccccc1` (centres undefined), the GI50 in test [1] is 1.8 µM; in test [2], 0.398 µM; in test [3] it was 0.393 µM; in [4], 0.42 µM; in [5] it was 0.285 µM; in test [6], 0.366 µM. For the same compound, the GI50 was 1.79 µM in test [7], 0.227 µM in test [8], 1.64 µM in test [9] and 0.326 µM in [10]. Also, the TGI in test [1] stood at 3.53 µM; in test [2] it was 1.62 µM; in [3] it was 1.56 µM; in test [4] it was 1.74 µM; in [5], 2.16 µM; in test [6] it was 1.31 µM. Also, the TGI in test [7] is 3.61 µM; in [8], 2.67 µM; in test [9] it was 3.16 µM; in test [10], 1.13 µM.

As for `CCCCC[C@H]1C/C=C2/C(=O)C=C[C@@H]2C/C=C\CCCC(=O)O1`, the GI50 in test [1] is 0.193 µM; in test [2], 0.577 µM; in test [3], 0.169 µM; in test [4] it was 0.16 µM; in test [5], 0.12 µM; in test [6] it was 0.096 µM. Also, the GI50 is 0.0844 µM in test [7], 0.124 µM in test [8], 0.105 µM in [9] and 0.129 µM in test [10]. The TGI was 0.878 µM in test [1]; 2.18 µM in [2]; 1.94 µM in [3]; 0.713 µM in [4]; 0.343 µM in [5]; 0.179 µM in test [6]. The TGI came to 0.168 µM in test [7], 50 µM in test [8], 0.346 µM in [9] and 0.341 µM in test [10].

`O=S1(=O)CCC2=CC(C(F)(F)F)=CC(C(F)(F)F)=CN21`: the TGI in test [1] was 3.84 µM; in [2], 4.26 µM; in [3], 5.46 µM; in [4], 3.37 µM; in [5], 3.9 µM; in [6], 3.68 µM. In addition, the TGI in test [7] is 3.02 µM; in test [8] it was 1.82 µM; in [9] it was 5.76 µM; in test [10] it was 4.88 µM.

With `Cc1nc(C(=O)OCc2ccccc2)cc(OCc2ccccc2)c1C`, the GI50 was 27.9 µM in [1]; 14.7 µM in test [2]; 17 µM in test [3]; 15.3 µM in test [4]; 1.53 µM in test [5]; 20.5 µM in test [6]. Moreover, the GI50 was 10.7 µM in [7], 18.8 µM in test [9] and 19.9 µM in test [10]. In addition, the TGI in test [1] was greater than 85.6 µM; in test [2], 30.8 µM; in test [3] it was 41.4 µM; in test [4], 36.8 µM; in test [5], 25 µM; in test [6], 54.1 µM. For the same compound, the TGI is 26 µM in test [7], 28.6 µM in [8], 38.3 µM in [9] and 40.7 µM in test [10].

Consider `CCOC(=O)C(Cc1cc(OC)c(CC(C(=O)OCC)C(=O)OCC)cc1OC)C(=O)OCC`, for which the TGI is greater than 100 µM in test [1]; 83.8 µM in test [2]; greater than 100 µM in [3]; greater than 100 µM in [4]; greater than 100 µM in test [5]; greater than 100 µM in [6]. In addition, the TGI in test [7], in test [8], in test [9] and in test [10] was greater than 100 µM in each case.

As for `O=C1C=C(NCCc2ccccc2)c2ccccc2C1=O`, the TGI came to 10.1 µM in test [1]; 29.5 µM in test [2]; 3.13 µM in [3]; 5.67 µM in test [4]; 13.6 µM in test [5]; 4.09 µM in test [6]. Moreover, the TGI in test [7] was 2.31 µM; in test [8] it was 43.3 µM; in test [9], 2.93 µM; in [10], 4.89 µM.

Take `Cc1cc(C)c(-c2c(O)c(Br)c(-c3c(C)cc(C)c(Br)c3C)c(O)c2Br)c(C)c1Br`: the GI50 was 4.67 µM in [1]; 0.66 µM in test [2]; 4.21 µM in [3]; 3.21 µM in test [4]; 1.68 µM in [5]; 2.67 µM in [6]. The GI50 in [7] is 1.77 µM; in test [8] it was 2.32 µM; in [9], 2.52 µM; in test [10], 2.81 µM. Further, the TGI in [1] came out at 20.5 µM; in test [2] it was 5.67 µM; in [3], 16 µM; in test [4] it was 11.8 µM; in [5] it was 9.67 µM; in test [6], 7.31 µM. The TGI in [7] amounted to 4.24 µM; in test [8] it was 8.29 µM; in test [9] it was 12.2 µM; in test [10], 10.1 µM.
